The record followed here is ChEMBL document CHEMBL1140107, “Design, synthesis, and evaluation of potent and selective ligands for the dopamine 3 (D3) receptor with a novel in vivo behavioral profile” (J Med Chem, 2008).

Data set [1] in a line: Aqueous solubility of the compound. Particulars: aqueous medium (not further specified).
Another data set deals with D(2) dopamine receptor (Rattus norvegicus, UniProt P61169). The data set can be described thus: Displacement of [3H]Spiperone from D2 receptor in Sprague-Dawley rat caudate-putamen. Format: tissue-based.
The next data set deals with D(1A) dopamine receptor (Rattus norvegicus, UniProt P18901). The data set can be described thus: Displacement of [3H]SCH23390 from D1-like receptor in Sprague-Dawley rat striatum. For orientation: Displacement assays read how much labelled ligand stays bound in the presence of the test substance.

A value given as a limit tells only on which side of the number the result lay.

Sequence of D(1A) dopamine receptor (P18901 whole entry): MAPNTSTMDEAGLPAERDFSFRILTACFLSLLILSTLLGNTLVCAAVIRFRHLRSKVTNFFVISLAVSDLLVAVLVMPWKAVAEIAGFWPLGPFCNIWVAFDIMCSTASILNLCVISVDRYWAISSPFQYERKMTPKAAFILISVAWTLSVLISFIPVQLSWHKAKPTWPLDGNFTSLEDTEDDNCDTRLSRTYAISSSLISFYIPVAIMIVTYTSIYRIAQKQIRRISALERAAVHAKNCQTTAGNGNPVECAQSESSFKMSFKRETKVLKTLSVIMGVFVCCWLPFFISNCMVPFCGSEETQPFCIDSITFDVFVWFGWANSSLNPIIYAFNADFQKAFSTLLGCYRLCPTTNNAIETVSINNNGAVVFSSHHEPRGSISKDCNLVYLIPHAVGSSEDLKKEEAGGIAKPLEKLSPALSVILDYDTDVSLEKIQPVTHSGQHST
Sequence of D(2) dopamine receptor (P61169 whole entry): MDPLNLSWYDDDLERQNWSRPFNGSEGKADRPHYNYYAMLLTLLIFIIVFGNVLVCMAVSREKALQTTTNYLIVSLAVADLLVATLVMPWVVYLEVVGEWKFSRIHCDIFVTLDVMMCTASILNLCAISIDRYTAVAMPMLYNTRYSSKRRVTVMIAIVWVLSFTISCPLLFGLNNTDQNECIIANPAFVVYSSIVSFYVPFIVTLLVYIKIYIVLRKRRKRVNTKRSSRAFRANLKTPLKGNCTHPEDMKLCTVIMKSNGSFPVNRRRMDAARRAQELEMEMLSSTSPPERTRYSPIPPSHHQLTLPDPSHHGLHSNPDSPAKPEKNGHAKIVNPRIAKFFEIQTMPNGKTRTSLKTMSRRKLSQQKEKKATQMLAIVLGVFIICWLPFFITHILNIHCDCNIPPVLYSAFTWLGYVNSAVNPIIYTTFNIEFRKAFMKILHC

`CCCN(CC[C@H]1CC[C@H](NC(=O)c2ccc3ccccc3c2)CC1)[C@H]1CCc2nc(N)sc2C1.Cl.Cl` registered a solubility in data set [1] of 100 mg/mL.

At D(2) dopamine receptor, `CCCN(CC[C@H]1CC[C@H](NC(=O)/C=C/c2ccccc2)CC1)[C@H]1CCc2nc(N)sc2C1` returned a Ki of 0.33 µM.

`CCCCN(CC[C@H]1CC[C@H](NC(=O)c2ccc3ccccc3c2)CC1)[C@H]1CCc2nc(N)sc2C1` returned a Ki at D(1A) dopamine receptor of 5.4 µM.

On to `CC(C)CCN(CC[C@H]1CC[C@H](NC(=O)c2ccc3ccccc3c2)CC1)[C@H]1CCc2nc(N)sc2C1`, for which the affinity on D(1A) dopamine receptor, expressed as Ki, was 13 µM.

`Nc1nc2c(s1)C[C@@H](NCC[C@H]1CC[C@H](NC(=O)c3ccc4ccccc4c3)CC1)CC2` gave a Ki on D(1A) dopamine receptor of 64 µM.

With `COc1ccc2c(c1)CC[C@@H]1CN(CC[C@H]3CC[C@H](NC(=O)c4ccc5ccccc5c4)CC3)CCN21`, the Ki at D(1A) dopamine receptor is greater than 50 µM; on D(2) dopamine receptor, greater than 10 µM.

With `CCCN[C@H]1CCc2nc(N)sc2C1` [PRAMIPEXOLE], the Ki at D(1A) dopamine receptor is greater than 100 µM.

The term solubility denotes the concentration that dissolves in the medium under given conditions. A high value points to a readily soluble substance. What is called Ki is the equilibrium dissociation constant of an inhibitor or competing ligand from its target.
